pKd: −log10 of the molar value. The source made the active and inactive calls. No cut-off for these calls is given here.
Tests used:
[1] = biological target: C-X-C chemokine receptor type 4 (Homo sapiens) (UniProt P61073); assay: Inhibition of human CXCR4-mediated chemotaxis expressed in mouse 300-19 Pre-B cells assessed as reduction in CXCL12/HMGB1-induced cell migration at 100 uM; format: functional, cell-based
[2] = biological target: C-X-C chemokine receptor type 4 (Homo sapiens) (UniProt P61073); assay: Inhibition of human CXCR4-mediated chemotaxis expressed in mouse 300-19 Pre-B cells assessed as reduction in CXCL12-induced cell migration at 100 uM; format: functional, cell-based
[3] = biological target: C-X-C chemokine receptor type 4 (Homo sapiens) (UniProt P61073); assay: Inhibition of human CXCR4-mediated chemotaxis expressed in human monocytes assessed as reduction in CXCL12/HMGB1-induced cell migration at 100 uM; format: functional, cell-based; details: Monocyte
[4] = biological target: C-X-C chemokine receptor type 4 (Homo sapiens) (UniProt P61073); assay: Inhibition of human CXCR4-mediated chemotaxis expressed in human monocytes assessed as reduction in CXCL12-induced cell migration at 100 uM; format: functional, cell-based; details: Monocyte
[5] = biological target: C-X-C chemokine receptor type 4 (Homo sapiens) (UniProt P61073); assay: Inhibition of human CXCR4-mediated chemotaxis expressed in mouse 300-19 Pre-B cells assessed as reduction in CXCL12/HMGB1-induced cell migration at 50 uM; format: functional, cell-based
[6] = biological target: Toll-like receptor 4 (Homo sapiens) (UniProt O00206); assay: Inhibition of HMGB1 binding to TLR4 in human monocytes assessed as reduction in HMGB1-induced IL-6 production at 100 uM by cytometric bead array; format: cell-based; details: Monocyte
[7] = biological target: Toll-like receptor 4 (Homo sapiens) (UniProt O00206); assay: Inhibition of HMGB1 binding to TLR4 in human monocytes assessed as reduction in HMGB1-induced TNF production at 100 uM by cytometric bead array; format: cell-based; details: Monocyte
[8] = biological target: T1, High mobility group protein B1 (Homo sapiens, UniProt P09429); assay: Binding affinity to 6His-tagged HMGB1 (unknown origin) incubated for 15 mins by MST analysis
T1 sequence (P09429 whole entry): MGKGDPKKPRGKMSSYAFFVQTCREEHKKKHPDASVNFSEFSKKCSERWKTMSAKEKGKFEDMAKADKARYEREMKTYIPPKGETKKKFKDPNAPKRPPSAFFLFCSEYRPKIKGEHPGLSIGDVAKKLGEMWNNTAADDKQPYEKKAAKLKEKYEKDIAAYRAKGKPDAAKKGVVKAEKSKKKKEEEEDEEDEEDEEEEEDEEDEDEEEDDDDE

[9] = biological target: C-X-C chemokine receptor type 4 (Homo sapiens) (UniProt P61073); assay: Inhibition of human CXCR4-mediated chemotaxis expressed in mouse 300-19 Pre-B cells assessed as reduction in CXCL12/HMGB1-induced cell migration at 200 uM; format: functional, cell-based
[10] = biological target: T1, High mobility group protein B1; assay: Binding affinity to full-length N-terminal 6His-tagged HMGB1 (unknown origin) by NMR spectra

Chain of C-X-C chemokine receptor type 4 (Homo sapiens) (P61073 whole entry): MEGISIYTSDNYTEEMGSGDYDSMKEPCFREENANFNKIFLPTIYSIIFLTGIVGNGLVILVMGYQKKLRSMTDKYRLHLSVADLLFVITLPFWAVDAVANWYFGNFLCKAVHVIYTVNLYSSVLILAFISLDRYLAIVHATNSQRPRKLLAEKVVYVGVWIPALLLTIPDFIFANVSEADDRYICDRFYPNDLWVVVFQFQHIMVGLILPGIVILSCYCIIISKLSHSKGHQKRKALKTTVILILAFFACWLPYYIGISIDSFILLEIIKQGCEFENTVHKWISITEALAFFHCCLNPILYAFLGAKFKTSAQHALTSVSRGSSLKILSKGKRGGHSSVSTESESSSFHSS
Chain of Toll-like receptor 4 (Homo sapiens) (O00206 whole entry): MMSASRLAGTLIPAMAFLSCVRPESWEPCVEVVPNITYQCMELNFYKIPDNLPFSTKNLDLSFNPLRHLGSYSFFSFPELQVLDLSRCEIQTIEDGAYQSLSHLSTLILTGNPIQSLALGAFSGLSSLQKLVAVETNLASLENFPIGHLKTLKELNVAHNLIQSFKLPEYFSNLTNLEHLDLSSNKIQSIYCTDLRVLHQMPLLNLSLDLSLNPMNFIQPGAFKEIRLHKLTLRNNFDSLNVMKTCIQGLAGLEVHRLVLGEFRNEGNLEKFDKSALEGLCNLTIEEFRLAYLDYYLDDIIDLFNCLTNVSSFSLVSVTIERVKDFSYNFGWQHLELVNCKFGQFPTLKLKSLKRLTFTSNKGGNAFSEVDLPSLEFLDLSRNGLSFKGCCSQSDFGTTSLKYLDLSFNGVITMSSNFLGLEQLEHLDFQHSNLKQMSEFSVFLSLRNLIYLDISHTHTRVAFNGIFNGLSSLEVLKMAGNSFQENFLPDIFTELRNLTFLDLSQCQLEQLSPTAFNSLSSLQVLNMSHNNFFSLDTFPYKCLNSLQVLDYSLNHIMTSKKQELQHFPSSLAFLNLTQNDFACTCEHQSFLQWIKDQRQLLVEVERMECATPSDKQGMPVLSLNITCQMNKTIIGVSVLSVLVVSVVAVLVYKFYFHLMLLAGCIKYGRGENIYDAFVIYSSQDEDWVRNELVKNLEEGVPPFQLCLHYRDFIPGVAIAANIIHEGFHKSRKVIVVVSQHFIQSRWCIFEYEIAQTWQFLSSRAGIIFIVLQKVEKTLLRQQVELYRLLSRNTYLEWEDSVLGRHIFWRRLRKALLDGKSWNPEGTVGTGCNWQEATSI

H-YHICWYGDY-OH
inhibition [1]: Active
inhibition [2]: Active

H-GYHYERWIH-OH
inhibition [1]: Active
inhibition [2]: inactive
inhibition [3]: Active
inhibition [4]: inactive
inhibition [5]: 50%
inhibition [6]: inactive
inhibition [7]: inactive

H-ERWIH-OH
pKd ([8]; read-out: Kd): 3.80

H-WISNWILMW-OH
inhibition [1]: Active
inhibition [2]: Active

CC1(C)[C@@H](O[C@H]2O[C@H](C(=O)O)[C@@H](O)[C@H](O)[C@H]2O[C@@H]2O[C@H](C(=O)O)[C@@H](O)[C@H](O)[C@H]2O)CC[C@]2(C)[C@H]3C(=O)C=C4[C@@H]5C[C@@](C)(C(=O)O)CC[C@]5(C)CC[C@@]4(C)[C@]3(C)CC[C@@H]12
inhibition [9]: Active

H-GYHYE-OH
Kd [8]: Not Active

O=C(O)c1cc(-c2ccc(F)cc2F)ccc1O [DIFLUNISAL]
pKd [10]: 2.80

H-HWTLANWCR-OH
inhibition [1]: Active
inhibition [2]: inactive
